Measured values from US20250034116A1, “1,4-DIHETEROCYCLIC SUBSTITUTED AROMATIC RING OR AROMATIC HETEROCYCLIC COMPOUND AND USE THEREOF” (BeBetter Med Inc., priority 2022, published 2025).

Legend:
[1] = tested on: CYP enzymes in human liver microsomes (HLM); assay: Inhibition of 20-HETE production in human liver microsomes (HLM); format: biochemical
Protocol: (§1) Experimental principle: The inhibitory activity of 20-HETE production is evaluated by testing the inhibitory effects of the compound on human liver microsomes (HLM), rat liver microsomes (RLM), mouse liver microsomes (MLM), or […] CYP4 subtype enzymes (CYP4F2). This assay employs HLM, RLM, or MLM along with recombinant CYP4F2 (rCYP4F2) and recombinant CYP4A11 (rCYP4A11), which are […] CYP4 subtype enzymes, to detect the effects of the test compound at different concentrations on the metabolic rate of enzyme-specific substrates, to determine the inhibitory effects of the test compound on CYP enzymes in HLM, RLM, or MLM.
(§2) Experimental methods: Dissolve the test compound in DMSO, and subsequently dilute it with an acetonitrile and DMSO mixture (3:1). Add 2 μl of varying concentrations of the test compound and 100 μl of potassium phosphate buffer containing either liver microsomes or recombinant enzymes to a 96-well plate. After mixing well, transfer 30 μl to another well (in duplicate), add 15 μl of 400 μM substrate solution, and mix well again. Preheat at 37° C. for 10 minutes, and then add 15 μl of 6 mM NADPH and incubate at 37° C. for 25 minutes. After 25 minutes, add 160 μl of acetonitrile solution (containing 0.1 μg/ml internal standard) to stop the reaction. Mix well, centrifuge at 3500 g for 15 minutes, and then analyze the supernatant using LC-MS/MS.
(§3) Plot the compound concentration on the x-axis and the inhibition rate on the y-axis to draw the curve. Use GraphPad Prism 5 software to fit the curve and calculate the IC50. The formula is Y=Bottom+(Top−Bottom)/(1+10^((Log IC50−X)×HillSlope)). X represents the logarithmic concentration of the inhibitor, and Y represents the relative enzyme activity at a given inhibitor concentration (relative to the condition without the inhibitor).
(§4) Calculate the inhibition percentages at concentrations of 1000 nM, 500 nM, or 100 nM as well as the half-maximal inhibitory concentration (IC50) of the test compound from the above experiment.

[2] = tested on: CYP enzymes in rat liver microsomes (RLM); assay: Inhibition of 20-HETE production in rat liver microsomes (RLM); format: biochemical
Protocol: as §1, §2, §3, §4

Question: `O=C(N1CCCC1)N1CCN(c2ccc(-c3cn[nH]c3)cc2F)CC1` [Compound 129, (4-(2-fluoro-4-(1H-pyrazol-4-yl)phenyl)piperazin-1-yl)(pyrrolidin-1-yl) methanone] was tested. Which “HLM (% inh @ 500 nM)” value [1] did it give?
Answer: Its value is 89.94%.

Question: What about the “RLM (% inh @ 500 nM)” value [2] of the same compound?
Answer: The value was 74.89%.

Question: `O=C(C1CCN(c2ccc(-c3cn[nH]c3)cc2F)CC1)N1Cc2ccccc2C1` [Compound 156, (1-(2-fluoro-4-(1H-pyrazol-4-yl)phenyl)piperidin-4-yl)(isoindolin-2-yl) methanone] was tested. Which IC50 [1] did it give?
Answer: The IC50 was 26.2 nM.

Question: How did the “HLM (% inh @ 500 nM)” value [1] turn out when `NC(=O)c1cc(-c2cn[nH]c2)ccc1N1CCC(CN2CCCC2=O)CC1` [Compound 16, 2-(4-((2-oxopyrrolidin-1-yl)methyl)piperidin-1-yl)-5-(1H-pyrazol-4-yl)benzamide] was run?
Answer: Its value is 41.22%.

Question: With `O=C1CCCN1CC1C2CN(c3ccc(-c4cn[nH]c4)cc3)CC12` (stereo not drawn) [Compound 125, 1-((3-(4-(1H-pyrazol-4-yl)phenyl)-3-azabicyclo[3.1.0]hexan-6-yl)methyl)pyrrolidin-2-one] as the compound, how does the “HLM (% inh @ 500 nM)” value [1] read?
Answer: The value was 94.93%.

Question: And the “RLM (% inh @ 500 nM)” value [2]?
Answer: Its value is 34.82%.

Question: Which results are given for `Cc1cc(-c2cn[nH]c2)ccc1N1CCC(CN2CCCC2=O)CC1` [Compound 12, 1-((1-(2-methyl-4-(1H-pyrazol-4-yl)phenyl)piperidin-4-yl)methyl)pyrrolidin-2-one]?
Answer: HLM (% inh @ 500 nM) [1]: 76.91%; RLM (% inh @ 500 nM) [2]: 17.99%

Question: How did the “HLM (% inh @ 500 nM)” value [1] turn out when `CC(=O)NCC1CCN(c2ccc(-c3cn[nH]c3)cc2)CC1` [Compound 43, N-((1-(4-(1H-pyrazol-4-yl)phenyl)piperidin-4-yl)methyl) acetamide] was run?
Answer: The value was 61.30%.

Question: What about the “RLM (% inh @ 500 nM)” value [2] of the same compound?
Answer: The value was 31.42%.

Question: Which results are given for `O=C1CCCCC1C(=O)N1CCC(c2ccc(-c3cn[nH]c3)c(F)c2F)CC1` (stereo not drawn) [Compound 109, 2-(4-(2,3-difluoro-4-(1H-pyrazol-4-yl)phenyl)piperidine-1-carbonyl)cyclohexane-1-one]?
Answer: HLM (% inh @ 500 nM) [1]: 74.67%; RLM (% inh @ 500 nM) [2]: 68.22%

Question: With `O=C(Nc1ccc(F)cc1)C1CCN(c2ccc(-c3cn[nH]c3)cc2)CC1` [Compound 61, 1-(4-(1H-pyrazol-4-yl)phenyl)-N-(4-fluorophenyl)piperidine-4-carboxamide] as the compound, how does the IC50 [1] read?
Answer: The IC50 was 17.6 nM.

Question: And the “HLM (% inh @ 500 nM)” value [1]?
Answer: The value was 85.27%.

Question: What about the IC50 [2] of the same compound?
Answer: Its IC50 is 60.5 nM.

Question: `O=Cc1cc(-c2cn[nH]c2)ccc1N1CCC(CN2CCCC2=O)CC1` [Compound 15, 2-(4-((2-oxopyrrolidin-1-yl)methyl)piperidin-1-yl)-5-(1H-pyrazol-4-yl)benzaldehyde] was tested. Which “HLM (% inh @ 500 nM)” value [1] did it give?
Answer: Its value is 64.22%.

Question: And the “RLM (% inh @ 500 nM)” value [2]?
Answer: The value was 12.62%.

Question: Which “HLM (% inh @ 100 nM)” value [1] does the source give for `O=C(N1CCC(c2ccc(-c3cn[nH]c3)cc2)CC1)C1(O)CCCCC1` [Compound 139, (4-(4-(1H-pyrazol-4-yl)phenyl)piperidin-1-yl)(1-hydroxycyclohexyl) methanone] here?
Answer: Its value is 88.13%.

Question: With `O=C(NCC1CCCC1)N1CCN(c2ccc(-c3cn[nH]c3)c(F)c2F)CC1` [Compound 92, N-(cyclopentylmethyl)-4-(2,3-difluoro-4-(1H-pyrazol-4-yl)phenyl)piperazine-1-carboxamide] as the compound, how does the IC50 [1] read?
Answer: The IC50 was 26.4 nM.

Question: And the “HLM (% inh @ 500 nM)” value [1]?
Answer: The value was 94.83%.

Question: What about the “RLM (% inh @ 500 nM)” value [2] of the same compound?
Answer: The value was 77.48%.

Question: What does the source list for `O=C1CCCN1CC1CCN(c2ccc(-c3cn[nH]c3)nc2)CC1` [Compound 22, 1-((1-(6-(1H-pyrazol-4-yl)pyridin-3-yl)piperidin-4-yl)methyl)pyrrolidin-2-one]?
Answer: HLM (% inh @ 500 nM) [1]: 53.10%; RLM (% inh @ 500 nM) [2]: 34.61%

Question: `O=S(=O)(c1ccc(F)cc1)N1CCN(c2ccc(-c3cn[nH]c3)cc2F)CC1` [Compound 134, 1-(2-fluoro-4-(1H-pyrazol-4-yl)phenyl)-4-((4-fluorophenyl)sulfonyl)piperazine] was tested. Which IC50 [1] did it give?
Answer: The IC50 was 21.9 nM.

Question: Which results are given for `O=C(C1CCN(c2ccc(-c3cn[nH]c3)cc2)CC1)N1CCOCC1` [Compound 50, (1-(4-(1H-pyrazol-4-yl)phenyl)piperidin-4-yl)(morpholinyl) methanone]?
Answer: HLM (% inh @ 500 nM) [1]: 57.59%; RLM (% inh @ 500 nM) [2]: 14.48%

Question: `C#CCCCCCC(=O)NCC1CCN(c2ccc(-c3cn[nH]c3)cc2)CC1` [Compound 114, N-((1-(4-(1H-pyrazol-4-yl)phenyl)piperidin-4-yl)methyl)oct-7-ynamide] was tested. Which “HLM (% inh @ 500 nM)” value [1] did it give?
Answer: The value was 85.59%.

Question: And the “RLM (% inh @ 500 nM)” value [2]?
Answer: Its value is 54.89%.

Question: Which “HLM (% inh @ 500 nM)” value [1] does the source give for `O=C1CCCN1CC1CCN(c2cc(F)c(-c3cn[nH]c3)cc2F)CC1` [Compound 6, 1-((1-(2,5-difluoro-4-(1H-pyrazol-4-yl)phenyl)piperidin-4-yl)methyl)pyrrolidin-2-one] here?
Answer: Its value is 67.30%.

Question: And the “RLM (% inh @ 500 nM)” value [2]?
Answer: The value was 23.02%.

Question: How did the “HLM (% inh @ 500 nM)” value [1] turn out when `c1cc(N2CCC(CN3CCCC3)CC2)ccc1-c1cn[nH]c1` [Compound 40, 1-(4-(1H-pyrazol-4-yl)phenyl)-4-(pyrrolidin-1-ylmethyl)piperidine] was run?
Answer: Its value is 52.40%.

Question: What about the “RLM (% inh @ 500 nM)” value [2] of the same compound?
Answer: The value was 26.22%.

Question: `O=C(C1CCCC(O)C1)N1CCC(c2ccc(-c3cn[nH]c3)cc2F)CC1` (stereo not drawn) [Compound 148, (4-(2-fluoro-4-(1H-pyrazol-4-yl)phenyl)piperidin-1-yl)(3-hydroxycyclohexyl) methanone] was tested. Which “HLM (% inh @ 100 nM)” value [1] did it give?
Answer: The value was 85.60%.

Question: How did the “HLM (% inh @ 100 nM)” value [1] turn out when `O=C(C1CCCCC1O)N1CCC(c2ccc(-c3cn[nH]c3)cc2F)CC1` (single isomer, unassigned) [Compound 149a, (4-(2-fluoro-4-(1H-pyrazol-4-yl)phenyl)piperidin-1-yl)(2-hydroxycyclohexyl) methanone] was run?
Answer: Its value is 84.74%.

Question: For `N#Cc1ccc2c(c1)CN(C(=O)C1CCN(c3ccc(-c4cn[nH]c4)cc3)CC1)C2` [Compound 158, 2-(1-(4-(1H-pyrazol-4-yl)phenyl)piperidine-4-carbonyl) isoindoline-5-carbonitrile], which IC50 [1] is on record?
Answer: Its IC50 is 11.7 nM.

Question: How did the “HLM (% inh @ 500 nM)” value [1] turn out when `O=C(C1CCN(c2ccc(-c3cn[nH]c3)cc2)CC1)N1CCNCC1` [Compound 51, (1-(4-(1H-pyrazol-4-yl)phenyl)piperidin-4-yl)(piperazin-1-yl) methanone] was run?
Answer: Its value is 30.17%.

Question: With `COc1cc(-c2cn[nH]c2)ccc1N1CCC(CN2CCCC2=O)CC1` [Compound 14, 1-((1-(2-methoxy-4-(1H-pyrazol-4-yl)phenyl)piperidin-4-yl)methyl)pyrrolidin-2-one] as the compound, how does the “HLM (% inh @ 500 nM)” value [1] read?
Answer: Its value is 41.24%.

Question: Which “HLM (% inh @ 500 nM)” value [1] does the source give for `O=C1CCCN1CC1CCN(c2ccc(-c3cn[nH]c3)cn2)CC1` [Compound 21, 1-((1-(5-(1H-pyrazol-4-yl)pyridin-2-yl)piperidin-4-yl)methyl)pyrrolidin-2-one] here?
Answer: Its value is 40.01%.

Question: For `O=C1CCCN1CC1CCN(c2ncc(-c3cn[nH]c3)cn2)CC1` [Compound 23, 1-((1-(5-(1H-pyrazol-4-yl)pyrimidin-2-yl)piperidin-4-yl)methyl)pyrrolidine-2-one], which “HLM (% inh @ 500 nM)” value [1] is on record?
Answer: The value was −24.84%.

Question: How did the IC50 [1] turn out when `O=C1C2CCCC2CN1CC1CCN(c2ccc(-c3cn[nH]c3)cc2F)CC1` (stereo not drawn) [Compound 160, 2-((1-(2-fluoro-4-(1H-pyrazol-4-yl)phenyl)piperidin-4-yl)methyl) hexahydrocyclopenta[c]pyrrol-1(2H)-one] was run?
Answer: The IC50 was 23.2 nM.

Question: `CC(C)(O)CC(=O)N1CCC(c2ccc(-c3cn[nH]c3)cc2F)CC1` [Compound 151, 1-(4-(2-fluoro-4-(1H-pyrazol-4-yl)phenyl)piperidin-1-yl)-3-hydroxy-3-methylbutan-1-one] was tested. Which “HLM (% inh @ 100 nM)” value [1] did it give?
Answer: The value was 82.28%.

Question: For `O=C(C1CCN(c2ccc(-c3cn[nH]c3)cc2)CC1)N1Cc2cccnc2C1` [Compound 157, (1-(4-(1H-pyrazol-4-yl)phenyl)piperidin-4-yl)(5,7-dihydro-6H-pyrrolo[3,4-b]pyridin-6-yl) methanone], which IC50 [1] is on record?
Answer: Its IC50 is 17.6 nM.

Question: Which “HLM (% inh @ 100 nM)” value [1] does the source give for `O=C(N1CCN(c2ccc(-c3cn[nH]c3)cc2F)CC1)N1CC2CCCC2C1` (stereo not drawn) [Compound 133, (4-(2-fluoro-4-(1H-pyrazol-4-yl)phenyl)piperazin-1-yl)(hexahydrocyclopenta[c]pyrrol-2 (1H)-yl) methanone] here?
Answer: The value was 87.90%.

Question: Which “HLM (% inh @ 500 nM)” value [1] does the source give for `O=C1CCCN1Cc1ccc2c(c1)CN(c1ccc(-c3cn[nH]c3)cc1)C2` [Compound 126, 1-(2-(4-(1H-pyrazol-4-yl)phenyl)isoindolin-5-ylmethyl)pyrrolidin-2-one] here?
Answer: Its value is 64.15%.

Question: For `CN(C)c1cc(-c2cn[nH]c2)ccc1N1CCC(CN2CCCC2=O)CC1` [Compound 20, 1-((1-(2-(dimethylamino)-4-(1H-pyrazol-4-yl)phenyl)piperidin-4-yl)methyl)pyrrolidin-2-one], which “HLM (% inh @ 500 nM)” value [1] is on record?
Answer: Its value is 36.16%.
